Converted amounts (≈) assume the structure as drawn.
Experiments:
[1] = tested on: E. coli (TolC-deficient); test: MIC determination on E. coli (TolC-deficient); format: cell-based, Escherichia coli; details: 16 h
Method: First, the minimum inhibitory concentration (MIC) of carolacton on the E. coliΔtolC strain was determined. We started to develop the resistant mutants on CASO agar (peptone from casein 15 g/L, peptone from soybean 5 g/L, NaCl 5 g/L and agar 15 g/L; pH 7.3) plates supplemented with 4× the MIC concentration of carolacton (0.5 μg/mL) as selection pressure. Different numbers of E. coliΔtolC cells from 1 × 10^7 to 10^9 were spread on caso agar plates with carolacton. After 7 days, E. coliΔtolC colonies, which were resistant to carolacton, started to form on the agar plates. The mutants picked were inoculated in liquid MHB medium (beef extract 2 g/L, peptone from casein 17.5 g/L and corn starch 1.5 g/L, pH 7.4) supplemented with carolacton.
The determination of MICs was performed as described elsewhere. In brief, E. coli strains were treated with carolacton in serial dilution in either the presence or absence of sub-inhibitory concentrations of polymyxin B nonapeptide (PMBN; 3 µg/mL) and/or phenylalanine–arginine β-napthylamide (PAβN; 20 µg/mL) for 16 h at 37 °C in Mueller–Hinton broth. The MICs were assessed by visual inspection of the plates.

[2] = tested on: KB-V.1; test: Cytotoxicity screening, KB-V.1 (MTT); format: cell-based, human; details: for EC50: MDR (Pgp-overexpressing) cell line, 5 d treatment, MTT
Method: Half maximal effective concentrations (EC50) on human cancer cell lines were determined as described elsewhere. Human cancer cell lines were maintained as recommended by the depositor (German Collection of Microorganisms and Cell Cultures, DSMZ) and were treated for 5 d with carolacton in serial dilution. The viability of adherent cell types, HCT-116 (ACC 581), KB-3.1 (ACC-158) and KB-V.1 (ACC-149) was assessed by the addition of MTT tetrazolium salt and absorbance measurement at 570 nm. Histiocytic lymphoma U-937 cells (ACC-5) were maintained in RPMI 1640 medium and transferred into folate-free medium prior to the assay. Cell viability was determined by measuring alamar blue fluorescence emission at 590 nm. The values were referenced and EC50 values were determined by sigmoidal curve fitting. The cell lines KB-3.1 and KB-V.1 are originally derived from HeLa, whereas the latter is an MDR subclone of KB-3.1. They were used to directly compare the activity of carolacton on an mdr1 overexpressing and a sensitive cell line.

## CO[C@H](CC(=O)O)[C@@H](C)C(=O)[C@H](C)/C=C(\C)[C@H]1OC(=O)[C@H](O)[C@H](O)/C=C/[C@H](C)CCC[C@@H]1C [carolacton]
[1]; Escherichia coli
  MIC: 0.13 µg/mL (≈ 0.277 µM)
[1]; no additive, cation-adjusted Mueller–Hinton broth, 37 °C
  MIC: 0.125 µg/mL (≈ 0.267 µM)
[2]; Homo sapiens, KB-V1, 120 h
  EC50: 42 µM
[2]
  EC50: 41.8 ± 14.5 µM
[2]; inhibition of cell growth, 5 d
  Maximum inhibition: >80%

— publication PMC5688156, “The natural product carolacton inhibits folate-dependent C1 metabolism by targeting FolD/MTHFD” (Nature Communications, 2017)
